How the values were obtained:
[1] = biological target: T1, Alpha-1A adrenergic receptor (Homo sapiens) (UniProt P35348); experiment: Antagonist activity at human full-length N-terminal SNAP-tagged alpha1A adrenoceptor expressed in HEK293 cells assessed as inhibition of agonist-induced calcium mobilization at 10 uM preincubated for 10 mins followed by agonist addition by fluo-4 AM dye-based assay relative to control; format: functional, cell-based
T1 sequence (whole entry): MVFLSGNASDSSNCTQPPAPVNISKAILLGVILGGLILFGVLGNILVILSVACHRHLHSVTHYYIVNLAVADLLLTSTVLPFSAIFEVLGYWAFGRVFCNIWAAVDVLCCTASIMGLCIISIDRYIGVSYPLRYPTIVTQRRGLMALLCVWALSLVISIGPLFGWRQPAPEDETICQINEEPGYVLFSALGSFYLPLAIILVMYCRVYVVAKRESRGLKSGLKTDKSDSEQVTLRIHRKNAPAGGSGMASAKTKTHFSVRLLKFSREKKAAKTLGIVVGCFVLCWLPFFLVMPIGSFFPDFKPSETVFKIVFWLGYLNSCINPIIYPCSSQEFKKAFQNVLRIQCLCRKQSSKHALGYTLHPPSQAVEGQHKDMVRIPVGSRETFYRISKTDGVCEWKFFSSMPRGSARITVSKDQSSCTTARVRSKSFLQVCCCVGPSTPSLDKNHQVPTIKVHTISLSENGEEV

[2] = species: Homo sapiens; experiment: Selectivity ratio of IC50 for human full-length N-terminal SNAP-tagged alpha1B adrenoceptor to IC50 for human full-length N-terminal SNAP-tagged alpha1A adrenoceptor
[3] = biological target: T2, Alpha-1B adrenergic receptor (Rattus norvegicus, UniProt P15823); experiment: Antagonist activity at alpha1B adrenoceptor in Sprague-Dawley rat aorta assessed as inhibition of norepinephrine-induced smooth muscle contraction after 20 mins
T2 sequence (P15823 whole entry): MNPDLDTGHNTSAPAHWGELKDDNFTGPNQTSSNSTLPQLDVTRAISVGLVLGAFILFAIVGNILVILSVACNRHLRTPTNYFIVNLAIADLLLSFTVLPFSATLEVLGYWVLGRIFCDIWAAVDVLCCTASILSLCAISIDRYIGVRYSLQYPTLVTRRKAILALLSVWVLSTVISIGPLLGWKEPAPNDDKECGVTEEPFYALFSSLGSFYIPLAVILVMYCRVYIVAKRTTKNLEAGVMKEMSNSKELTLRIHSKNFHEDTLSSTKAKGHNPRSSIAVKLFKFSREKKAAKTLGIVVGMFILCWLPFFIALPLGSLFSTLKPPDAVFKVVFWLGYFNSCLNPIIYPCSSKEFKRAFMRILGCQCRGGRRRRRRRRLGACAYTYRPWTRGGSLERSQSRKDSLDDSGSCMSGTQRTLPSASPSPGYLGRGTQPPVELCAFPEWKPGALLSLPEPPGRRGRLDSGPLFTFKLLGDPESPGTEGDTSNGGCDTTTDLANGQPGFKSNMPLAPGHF

[4] = Selectivity ratio of IC50 for alpha1B adrenoceptor in Sprague-Dawley rat aorta to IC50 for alpha1A adrenoceptor in Sprague-Dawley rat urethra
[5] = system: Rattus norvegicus; experiment: Inhibition of micturition frequency in po dosed Sprague-Dawley rat benign prostatic hyperplasia model administered 20 mins followed by distilled watering loading measured for 2 hrs; format: functional; settings: read-out: MED
[6] = system: Rattus norvegicus; experiment: Increase in voided volume in po dosed Sprague-Dawley rat benign prostatic hyperplasia model administered 20 mins followed by distilled watering loading measured for 2 hrs; format: functional; settings: read-out: MED
[7] = biological target: Voltage-gated inwardly rectifying potassium channel KCNH2 (Homo sapiens, UniProt Q12809); experiment: Inhibition of human ERG
[8] = system: Mus musculus; experiment: Acute toxicity in Kunming mouse assessed as effect on body weight at 500 mg/kg, po administered as single dose measured over 7 days; format: organism-based; settings: in vivo, 168 h
[9] = system: Mus musculus; experiment: Acute toxicity in Kunming mouse assessed as effect on fur colour at 500 mg/kg, po administered as single dose measured over 7 days; format: organism-based; settings: in vivo, 168 h
[10] = Tmax in rat at 20 mg/kg, ig via oral gavage; format: ADME, organism-based; settings: in vivo
[11] = Tmax in rat at 10 mg/kg, iv; format: ADME, organism-based; settings: in vivo
[12] = Cmax in rat at 20 mg/kg, ig via oral gavage; format: ADME, organism-based; settings: in vivo
[13] = Cmax in rat at 10 mg/kg, iv; format: ADME, organism-based; set-up: dose 10 mg/kg, route intravenous; settings: in vivo
[14] = AUC (0 to infinity) in rat at 20 mg/kg, ig via oral gavage; format: ADME, organism-based; settings: in vivo
[15] = AUC (0 to infinity) in rat at 10 mg/kg, iv; format: ADME, organism-based; set-up: dose 10 mg/kg, time infinity, route intravenous; settings: in vivo
[16] = Mean residence time in rat at 20 mg/kg, ig via oral gavage; format: ADME, organism-based; settings: in vivo
[17] = Mean residence time in rat at 10 mg/kg, iv; format: ADME, organism-based; settings: in vivo
[18] = Half life in rat at 10 mg/kg, iv; format: ADME, organism-based; settings: in vivo
[19] = Oral bioavailability in rat at 20 mg/kg, ig via gavage; format: ADME, organism-based; settings: in vivo
[20] = Apparent clearance in rat at 10 mg/kg, iv; format: ADME, organism-based; settings: in vivo, read-out: CL(app) (converted)
[21] = biological target: T3, Alpha-1A adrenergic receptor (Homo sapiens, UniProt P35348)
T3 sequence (P35348 whole entry): T1 sequence (whole entry)
Description: Antagonist activity at human full-length N-terminal SNAP-tagged alpha1A adrenoceptor expressed in HEK293 cells assessed as inhibition of agonist-induced calcium mobilization preincubated for 10 mins followed by agonist addition by fluo-4 AM dye-based assay

[22] = biological target: T4, Alpha-1B adrenergic receptor (Homo sapiens, UniProt P35368)
T4 sequence (P35368 whole entry): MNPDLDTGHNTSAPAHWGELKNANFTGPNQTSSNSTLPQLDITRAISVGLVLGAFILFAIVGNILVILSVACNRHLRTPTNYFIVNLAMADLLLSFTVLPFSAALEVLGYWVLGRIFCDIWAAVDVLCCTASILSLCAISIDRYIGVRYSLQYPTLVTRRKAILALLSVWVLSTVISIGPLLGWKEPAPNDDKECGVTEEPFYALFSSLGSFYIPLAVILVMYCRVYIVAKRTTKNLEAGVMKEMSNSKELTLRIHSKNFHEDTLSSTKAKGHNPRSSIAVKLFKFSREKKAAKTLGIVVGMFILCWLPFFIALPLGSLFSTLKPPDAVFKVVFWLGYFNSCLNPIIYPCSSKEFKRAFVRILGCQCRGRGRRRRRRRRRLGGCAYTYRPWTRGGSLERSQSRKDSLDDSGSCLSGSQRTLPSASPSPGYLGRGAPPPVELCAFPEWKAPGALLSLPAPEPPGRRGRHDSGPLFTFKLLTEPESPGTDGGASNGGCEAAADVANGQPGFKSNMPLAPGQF
Description: Antagonist activity at human full-length N-terminal SNAP-tagged alpha1B adrenoceptor expressed in HEK293 cells assessed as inhibition of agonist-induced calcium mobilization preincubated for 10 mins followed by agonist addition by fluo-4 AM dye-based assay

Voltage-gated inwardly rectifying potassium channel KCNH2, sequence (Q12809 whole entry): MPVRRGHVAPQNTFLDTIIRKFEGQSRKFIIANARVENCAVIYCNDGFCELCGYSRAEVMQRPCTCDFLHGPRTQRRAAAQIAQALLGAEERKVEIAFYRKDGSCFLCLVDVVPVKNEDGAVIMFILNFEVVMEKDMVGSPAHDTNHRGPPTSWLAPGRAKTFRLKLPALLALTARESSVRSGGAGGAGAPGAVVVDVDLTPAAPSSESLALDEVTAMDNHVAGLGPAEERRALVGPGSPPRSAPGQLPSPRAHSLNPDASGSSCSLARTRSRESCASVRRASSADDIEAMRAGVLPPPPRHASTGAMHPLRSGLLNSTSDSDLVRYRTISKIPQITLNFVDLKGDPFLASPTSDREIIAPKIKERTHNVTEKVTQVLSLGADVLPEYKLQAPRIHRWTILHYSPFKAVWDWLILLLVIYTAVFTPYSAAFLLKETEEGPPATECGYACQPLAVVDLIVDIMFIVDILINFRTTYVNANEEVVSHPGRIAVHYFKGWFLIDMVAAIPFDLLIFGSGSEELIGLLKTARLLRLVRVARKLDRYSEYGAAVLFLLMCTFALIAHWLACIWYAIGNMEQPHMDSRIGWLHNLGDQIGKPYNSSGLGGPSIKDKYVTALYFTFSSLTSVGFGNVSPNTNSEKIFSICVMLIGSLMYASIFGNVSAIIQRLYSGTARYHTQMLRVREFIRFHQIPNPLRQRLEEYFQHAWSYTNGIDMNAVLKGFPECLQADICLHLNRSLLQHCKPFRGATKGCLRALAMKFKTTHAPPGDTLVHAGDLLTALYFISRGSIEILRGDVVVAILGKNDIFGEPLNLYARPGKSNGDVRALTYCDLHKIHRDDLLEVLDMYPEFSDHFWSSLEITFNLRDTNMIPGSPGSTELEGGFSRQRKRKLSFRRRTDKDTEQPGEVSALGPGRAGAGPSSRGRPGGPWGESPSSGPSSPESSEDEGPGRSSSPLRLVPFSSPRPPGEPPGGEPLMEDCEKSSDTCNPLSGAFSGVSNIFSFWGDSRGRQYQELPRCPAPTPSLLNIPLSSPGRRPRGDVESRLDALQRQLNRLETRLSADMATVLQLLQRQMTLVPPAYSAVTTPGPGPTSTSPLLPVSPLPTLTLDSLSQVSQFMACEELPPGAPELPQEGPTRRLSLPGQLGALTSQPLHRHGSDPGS

COc1ccc2[nH]c3c(c2c1)C[C@H]1c2cc4c(cc2CCN1C3)OCO4 gave an inhibition [1] of 100%, a Ratio IC50 [2] of over 781 and an IC50 [3] of over 1 µM. For the same compound, the “Ratio IC50” value [4] was over 2083, the minimal effective dose [5] was 3 mg/kg and the minimal effective dose [6] was 3 mg/kg. The IC50 [7] was 13.2 µM, the Activity [8] was “Non-Toxic” and the Activity [9] was “Non-Toxic”. For the same compound, the Tmax [10] was 1 h, the Tmax [11] was 0.25 h and the Cmax [12] was 684 ng/mL. It also gave a Cmax [13] of 855 ng/mL, an AUC(0-inf) [14] of 2280 ng·h/mL and an AUC(0-inf) [15] of 1880 ng·h/mL. It also gave an MRT [16] of 2.52 h, an MRT [17] of 1.79 h and a half-life [18] of 0.98 h. For the same compound, the bioavailability [19] was 60.9%, the clearance [20] was 96.5 mL/min/kg and the IC50 [21] was 0.0128 µM. The IC50 [22] was over 10 µM.

Reference: ChEMBL document CHEMBL3856276, “Design, Synthesis, and Biological Evaluation of Novel Tetrahydroprotoberberine Derivatives (THPBs) as Selective α1A-Adrenoceptor Antagonists” (J Med Chem, 2016)
